Assay results from US20020137929A1, “1 - (3-heterocyclylphenyl) isothiourea, -isourea, -guanidine and -amidine herbicidal agents” (Intellectual Property Department, BASF Aktiengesellschaft, priority 1998, published 2002).

Legend:
ABUTH (Velvetleaf) [1] = assay: Postemergence herbicidal evaluation; type: in vivo, Abutilon theophrasti; details: postemergence
How it was run: (§1)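 Each compound, dispersed in an acetone/water mix (50/50) carrying 0.5% TWEEN 20, is nozzle-sprayed at 40 psi on approximately two-week-old seedlings at about 0.0156–0.500 kg/ha. Plants are assessed 4–5 weeks afterward on a 0–9 scale relative to control; duplicate tests are averaged.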

[2] = tested on: IPOHE (Morningglory, Ivyleaf); assay: Postemergence herbicidal evaluation; type: in vivo, Ipomoea hederacea; details: postemergence
How it was run: as §1

SETVI (Foxtail, Green) = assay: Postemergence herbicidal evaluation; type: in vivo, Setaria viridis; details: postemergence
How it was run: as §1

[3] = tested on: GLXMAW (Soybean, Williams); assay: Postemergence herbicidal evaluation; type: in vivo, Glycine max, (L.) Merr. cv Williams; details: postemergence
How it was run: as §1

ZEAMX (Corn, Field) = assay: Postemergence herbicidal evaluation; type: in vivo, Zea mays; details: postemergence
How it was run: as §1

ABUTH (Velvetleaf) [4] = assay: Preemergence herbicidal evaluation; type: in vivo, Abutilon theophrasti; details: rated 4-5 weeks after treatment; for ABUTH rating: preemergence, 0-9 scale
How it was run: (§2)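 Seeds were mixed with potting soil and planted on about one inch of soil, then sprayed with test compound in aqueous acetone at about 0.0156 to 0.500 kg per hectare. Plants grew under standard greenhouse care and were visually rated 0-9 against untreated controls 4-5 weeks post-treatment.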

AMBEL (Ragweed, Common) = assay: Preemergence herbicidal evaluation; type: in vivo, Ambrosia artemisifolia; details: rated 4-5 weeks after treatment; for AMBEL rating: preemergence, 0-9 scale
How it was run: as §2

CASOB (Sicklepod) = assay: Preemergence herbicidal evaluation; type: in vivo, Cassia obtusifolia; details: rated 4-5 weeks after treatment; for CASOB rating: preemergence, 0-9 scale
How it was run: as §2

[5] = tested on: IPOHE (Morningglory, Ivyleaf); assay: Preemergence herbicidal evaluation; type: in vivo, Ipomoea hederacea; details: rated 4-5 weeks after treatment; for IPOHE rating: preemergence, 0-9 scale
How it was run: as §2

ECHCG (Barnyardgrass) = assay: Preemergence herbicidal evaluation; type: in vivo, Echinochloa crus-galli; details: rated 4-5 weeks after treatment; for ECHCG rating: preemergence, 0-9 scale
How it was run: as §2

[6] = tested on: ECHORC (Watergrass (Calif.)); assay: Preemergence weed control under flooded paddy conditions; type: in vivo, Echinochloa oryzoides; details: rated 3-4 weeks after treatment
How it was run: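 Seeds or propagules sown in silt loam kept flooded 1.5-3 cm; compounds in 50/50 acetone/water pipetted into flood water at about 0.0313 to 0.500 kg/ha. Greenhouse; visual 0-9 rating versus untreated control 3-4 weeks after treatment.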

CYPSE (Flatsedge) = assay: as above; type: in vivo, Cyperus serotinus; details: rated 3-4 weeks after treatment
How it was run: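 Using flooded silt loam (water 1.5 to 3 cm deep), seeds sown in the top 0.5 cm were exposed preemergence to compound pipetted into the flood at about 0.0313 to 0.500 kg/ha. Effects were scored 0-9 by eye three to four weeks later.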

C=CCOC(=O)CN1C(=O)CSC1=Nc1cc(-n2c(=O)cc(C(F)(F)F)n(C)c2=O)c(F)cc1Cl [Compound 106, Allyl 2-{{2-chloro-5-[3,6-dihydro-3-methyl-2,6-dioxo-4-(trifluoromethyl)-1(2H)-pyrimidinyl]-4-fluorophenyl}imino}-4-oxo-3-thiazolidineacetate]
herbicidal rating ABUTH (ABUTH (Velvetleaf) [1]; rate 0.0158 kg/ha): 9.0
herbicidal rating ABUTH (ABUTH (Velvetleaf) [1]; rate 0.0315 kg/ha): 9.0
herbicidal rating ABUTH (ABUTH (Velvetleaf) [1]; rate 0.0630 kg/ha): 9.0
herbicidal rating IPOHE ([2]; rate 0.0158 kg/ha): 9.0
herbicidal rating IPOHE ([2]; rate 0.0315 kg/ha): 9.0
herbicidal rating IPOHE ([2]; rate 0.0630 kg/ha): 9.0
herbicidal rating SETVI (SETVI (Foxtail, Green); rate 0.0158 kg/ha): 4.0
herbicidal rating SETVI (SETVI (Foxtail, Green); rate 0.0315 kg/ha): 3.0
herbicidal rating SETVI (SETVI (Foxtail, Green); rate 0.0630 kg/ha): 9.0
herbicidal rating GLXMAW ([3]; rate 0.0158 kg/ha): 4.5
herbicidal rating GLXMAW ([3]; rate 0.0315 kg/ha): 5.5
herbicidal rating GLXMAW ([3]; rate 0.0630 kg/ha): 6.0
herbicidal rating ZEAMX (ZEAMX (Corn, Field); rate 0.0158 kg/ha): 5.0
herbicidal rating ZEAMX (ZEAMX (Corn, Field); rate 0.0315 kg/ha): 6.5
herbicidal rating ZEAMX (ZEAMX (Corn, Field); rate 0.0630 kg/ha): 7.0
ABUTH rating (ABUTH (Velvetleaf) [4]; 0.0313 kg/ha): 6.5
ABUTH rating (ABUTH (Velvetleaf) [4]; 0.0625 kg/ha): 8.0
ABUTH rating (ABUTH (Velvetleaf) [4]; 0.1250 kg/ha): 9.0
ABUTH rating (ABUTH (Velvetleaf) [4]; 0.2500 kg/ha): 9.0
Preemergence herbicidal rating ABUTH (ABUTH (Velvetleaf) [4]; rate 0.0156 kg/ha): 5.0
AMBEL rating (AMBEL (Ragweed, Common); 0.0313 kg/ha): 1.5
AMBEL rating (AMBEL (Ragweed, Common); 0.0625 kg/ha): 5.0
AMBEL rating (AMBEL (Ragweed, Common); 0.1250 kg/ha): 7.0
AMBEL rating (AMBEL (Ragweed, Common); 0.2500 kg/ha): 9.0
Preemergence herbicidal rating AMBEL (AMBEL (Ragweed, Common); rate 0.0156 kg/ha): 1.5
CASOB rating (CASOB (Sicklepod); 0.0313 kg/ha): 1.5
CASOB rating (CASOB (Sicklepod); 0.0625 kg/ha): 2.0
CASOB rating (CASOB (Sicklepod); 0.1250 kg/ha): 4.0
CASOB rating (CASOB (Sicklepod); 0.2500 kg/ha): 6.0
Preemergence herbicidal rating CASOB (CASOB (Sicklepod); rate 0.0156 kg/ha): 0.0
IPOHE rating ([5]; 0.0313 kg/ha): 2.5
IPOHE rating ([5]; 0.0625 kg/ha): 7.0
IPOHE rating ([5]; 0.1250 kg/ha): 7.5
IPOHE rating ([5]; 0.2500 kg/ha): 9.0
Preemergence herbicidal rating IPOHE ([5]; rate 0.0156 kg/ha): 2.0
ECHCG rating (ECHCG (Barnyardgrass); 0.0313 kg/ha): 1.0
ECHCG rating (ECHCG (Barnyardgrass); 0.0625 kg/ha): 1.5
ECHCG rating (ECHCG (Barnyardgrass); 0.1250 kg/ha): 2.0
ECHCG rating (ECHCG (Barnyardgrass); 0.2500 kg/ha): 7.0
Preemergence herbicidal rating ECHCG (ECHCG (Barnyardgrass); rate 0.0156 kg/ha): 0.0
ECHORC herbicidal effect rating ([6]; 0.0313 kg/ha): 2.0
ECHORC herbicidal effect rating ([6]; 0.0625 kg/ha): 4.0
ECHORC herbicidal effect rating ([6]; 0.1250 kg/ha): 5.0
ECHORC herbicidal effect rating ([6]; 0.2500 kg/ha): 7.0
CYPSE herbicidal effect rating (CYPSE (Flatsedge); 0.0313 kg/ha): 0.0
CYPSE herbicidal effect rating (CYPSE (Flatsedge); 0.0625 kg/ha): 0.0
CYPSE herbicidal effect rating (CYPSE (Flatsedge); 0.1250 kg/ha): 2.0
CYPSE herbicidal effect rating (CYPSE (Flatsedge); 0.2500 kg/ha): 6.0
